Measurements: the NIST ThermoML archive (doi:10.1021/je800583r)

Details: 101.33 kPa, Liquid

CCC1COC(=O)O1 (configuration not stated) [1,2-butylene carbonate]
Details	mass density [kg/m3]
283 K	1155.2
293.1 K	1146.6
295.1 K	1144.9
297.1 K	1143.3
299.1 K	1141.7
301.1 K	1140.1
303.1 K	1138.6
